The nature of this series: Dissolution profiles of hydrocortisone (CCN90306A) Accudep Cores (paddles, 75 rpm, distilled water). The note with it: 1 mg CCN90306A, vs control core, 75 rpm paddles, n=3, FIG. 7. Format: physicochemical. As for the experimental part: Accudep™ Cores were made as follows: Control Accudep™ Core: Sealed a 1 mg deposition of CCN90306A between two polymer sheets with the following composition: 45% HPMC, 45% HPC, 10% PEG.

In the case of `C[C@]12CCC(=O)C=C1CC[C@@H]1[C@@H]2[C@@H](O)C[C@@]2(C)[C@H]1CC[C@]2(O)C(=O)CO` [CCN90306A, Hydrocortisone], the “dissolution at 20- and 30-minute sample points” value runs as follows: (Polysorbate 80 incorporated in film Accudep Core (20%)) “faster dissolution”; (SLS incorporated in film Accudep Core (20% SLS)) “faster dissolution”.

The values are drawn from US20020036154A1, “Solid pharmaceutical dosage formulation of hydrophobic drugs” (priority 2000, published 2002).
